According to patent US20020061866A1, “Pharmaceutical compositions comprising in combination a bisphosphonate and a matrix metalloproteinase inhibitor” (priority 1999, published 2002):
Values joined by “and” are separate entries in the source; they are usually repeats but may differ in a detail not shown here. Equal values may be shown once.

What was measured:
[1] = test system: OPM-2; assay: Proliferation of HMCL, [3H]-thymidine incorporation; assay type: cell-based, human; conditions: for IC50: Homo sapiens, OPM-2, 72 h, 3 days
Description: (§1) The human myeloma cell lines (HMCL) LP-1 and OPM-2 were obtained from DSM (Braunschweig, Germany). JJN-3 was kindly provided by B Van Campo (VUB, Belgium). Cells are maintained in RPMI 1640 culture medium supplemented with 10% fetal calf serum (FCS), 2mM glutamine, antibiotics (100 IU/ml penicillin and 100 μg/ml streptomycin) and 10 μM 2-β-mercaptoethanol.
(§2) The three HMCL are studied Le., LP-1, OPM-2 and JJN-3. Proliferation assays are performed in 96-well round-bottom microtiter plates at a cell density of 10^5 cells/mL. Cells are incubated for 3 days at 37° C. in a 5% CO2 humidified atmosphere with or without recombinant human IL-6 (rhIL-6) at 5 ng/ml, in the presence (or not) of the bisphosphonate of interest. Then, […] of […] is added during the last 18 hours. [^3H]-thymidine, incorporation is quantified by liquid scintillation spectroscopy.

[2] = test system: JJN-3; assay: as above; assay type: cell-based, human; conditions: for concentration at which proliferation returns to the level of the control: JJN-3
Description: as §1, §2

[3] = test system: LP-1; assay: as above; assay type: cell-based, human; conditions: for IC50: Homo sapiens, LP-1, 72 h, 3 days
Description: as §1, §2

[4] = test system: IL-1β-induced MMP-1 secretion by BMSC; assay: Determination of interstitial collagenase (MMP-1) levels by ELISA; assay type: cell-based, human; conditions: IL-1β (10 ng/ml) stimulated, 48 h, mean ± SD
Description: (§3) BMSC are obtained from 7 patients with MM after long term culture of bone marrow samples. Bone marrow mononuclear cells are isolated by Ficoll-Hypaque density centrifugation. The cells are plated in DMEM supplemented with 10% FCS and allowed to attach for 3 days, after which the medium is renewed. After 2 to 3 weeks of culture, a confluent adherent cell monolayer is obtained and then, after two passages using trypsin/ETA solution, BMSC are recovered for study. Cells are maintained in DMEM supplemented with 10% FCS, 2 mmol/L glutamine, 100 μg/mL streptomycin, 100 U/mL penicillin, and 5. 10^−5 mol/L 2-β-mercaptoethanol.
Adherent BMSC (15×10^3 cells) plated in 96-well plates are preincubated for 24 hours with either pamidronate or zoledronate. Then the cells are stimulated by IL-1β (10 ng/ml) in the presence of different concentrations (10^−6, 10^−7, 10^−8 and 10^−9 Mol/L) of each bisphosphonate without FCS. After a 48-hour incubation period, supernatants are collected and stored at −20° C. until analysis. MMP-1 levels are measured by ELISA (Amersham, Les Ulis, France). This assay measures MMP-1 irrespective of its mode of presentation (i.e. free or bound, active or not).

[5] = test system: human myeloma cell lines (HMCL) LP-1, OPM-2 and JJN-3; assay: Proliferation of HMCL, [3H]-thymidine incorporation (three cell lines together); assay type: cell-based; conditions: for inhibition at 500 µM: Homo sapiens, 72 h, all the HMCL
Description: as §1, §2

[6] = test system: BMSC; assay: Survival experiments, BMSC apoptosis by APO 2.7 flow cytometry; assay type: cell-based, human; conditions: 10^−4 mol/L, 3-day incubation
Description: as §3
Adherent BMSC (3×10^5 cells) are plated in 25 cm^2 flasks and are incubated with either pamidronate (APD) or zoledronate, at the following concentrations: 10^−4 and 10^−5 mol/L. A control without bisphosphonate is performed After a 3-day incubation period, cells are washed with PBS and removed from the flasks using trypsin-EDTA for 20 seconds. The percentage of apoptotic cells is determined by flow cytometry using APO 2.7 mAb (Immunotech, Marseilles, France) (ibid.).

[7] = test system: MMP-2 secretion by BMSC; assay: Determination of gelatinase A (MMP-2) levels by gelatin substrate gel zymography; assay type: cell-based, human; conditions: 48 h
Description: as §3
Adherent BMSC (10^4 cells) plated in 96-well plates are preincubated for 24 hours with either pamidronate or zoledronate. Then the medium is replaced by a fresh one without FCS but in the presence of different concentrations (10^−6, 10^−7, 10^−8, 10^−9 Mol/L) of each bisphosphonate. After a 48-hour incubation period, the supernatants are collected and stored at −20° C. until analysis. MMP-2 production is shown by gelatin substrate gel zymography. The supernatants are mixed with sodium dodecyl sulfate (SDS) sample buffer without reducing agent and then, proteins are separated by SDS-polyacrylamide gel electrophoresis in 7.5% polyacrylamide gels containing gelatin at 1 mg/ml, as previously described by Heussen and Dowdle(1980 Ann. Biochem. 102: 196-202) and adjusted for minigel format. After electrophoresis, SDS is removed from the gels by an incubation in 2.5% Triton X-100 for half an hour at room temperature. The gels are then incubated at 37° C. in a buffer containing 50 mM/L Tris-HCl 5 mM/L CaCl2, pH 7.6 for 24 hours. The gels were stained with Coomassie blue R250 (0.25%). […] The intensity of the gelatinolytic bands is analysed by densitometry. No interference between bisphosphonates and gelatin substrate gel zymography is observed using this assay (data not shown).

[8] = test system: constitutive production of IL-6 by BMSC; assay: Determination of IL-6 concentrations by ELISA; assay type: cell-based, human; conditions: 48 h
Description: as §3
Adherent BMSC (10^4 cells) plated in 96-well plates are preincubated for 24 hours with either pamidronate or zoledronate. The medium is replaced by a fresh one containing 2% FCS and different concentrations of each bisphosphonate: 10^−6, 10^−7, 10^−8, 10^−9, 10^−10, 10^−11 Mol/L of zoledronate and 10^−6, 10^−7, 10^−8, 10^−9, 10^−10 Mol/L of pamidronate respectively. After a 48-hour incubation period, the supernatants are collected and stored at −20° C. until analysis. L6 A production is measured by ELISA (ELISA test concentrations ranging from 10 to 500 pg/mL) (Innotest, Besancon, France). No interference between the bisphosphonates and ELISA is observed in this study (data not shown). Six of the seven BMSC are tested for production of IL-6 in the presence of bisphosphonates.

[9] = test system: MMP-2 production and secretion by PC-3 ML cells; conditions: in vitro and in vivo; cited from earlier work
[10] = test system: human estrogen-independent breast cancer MDA-231 cells; conditions: nontransfected MDA-231 cells, daily subcutaneous administration; cited from earlier work
[11] = test system: human PC-3 ML prostatic cancer subclones; conditions: pretreatment of SCID mice; cited from earlier work
[12] = test system: LP-1 cells; assay: Analysis of cell cycle, propidium iodide flow cytometry; assay type: cell-based, human; conditions: LP-1, 5×10^−4 Mol/L, 4 day incubation; control 36%
Description: LP-1 cells (2×10^5 cells) plated in a 24 well-plate are incubated in the presence of 5×10^−4 Mol/L of either pamidronate or zoledronate. A control without bisphosphonate is performed. Cells are recovered after a 4day incubation period and washed. They are then incubated for 40 minutes at 37° C. with a solution of Triton×100 0.1%, Sodium Citrate 0.1%, 5 IU of RNAse and stained with propidium iodide (PI) 50 mg/L: Flow cytometry analysis is performed on a FACSCalibur using a CELLQuest program (Becton Dickinson). Data are gated on the F12-Area venus FL2-Width cytogram to exclude doublets and agregates, and a minimum of 2.5×10^4 gated cells is collected per sample. Analysis of the cell cycle was performed using the Modfit LT for Mac V2.01 program (Verity Software House, Inc). Apoptotic cells were detected as a subdiploid peak as described by Zamai et al. (1993, Cytometry 14: 891-897)

Compound | IC50 [1] [µM] | concentration at which proliferation returns to the level of the control [2] [mol/L] | IC50 [3] [µM] | inhibition of MMP-1 secretion by BMSC [4] | inhibition at 500 µM ([5]; 5×10^−4 Mol/L, 3 days) [%] | APO 2.7 stained (apoptotic) BMSC [6] [%] | MMP-2 upregulation (72 kDa gelatinase activity, densitometry) ([7]; 10^−6 mol/L) | concentration at which IL-6 production returns to the basal level ([8]; BMSC) | production and secretion of MMP-2 by PC-3 ML cells [9] | further results
NCCC(O)(P(=O)(O)O)P(=O)(O)O [pamidronate, (3-amino-1-hydroxypropylidene) bis-phosphonate] | 293 | 1e-05 | 207 | 21%±20% | 75 | 97 | 165%±27% | 10^−11 mol/L |  | IC50 ([2]; Homo sapiens, JJN-3, 72 h, 3 days): 107 µM; percentage of proliferation, of that of the control ([5]; 5×10^−4 Mol/L, the three cell lines, 3 days): 25%; concentration up to which dose-dependent inhibition of proliferation is observed ([5]; except for JJN-3): 5e-05 mol/L; inhibition of IL-6 production by BMSC ([8]; not proportional to dose, six BMSC samples, p=0.05): 40%±14%
CC(=O)O[C@H]1C(=O)[C@@]2(C)[C@H]([C@H](OC(=O)c3ccccc3)[C@]3(O)C[C@H](OC(=O)[C@H](O)[C@@H](NC(=O)c4ccccc4)c4ccccc4)C(C)=C1C3(C)C)[C@]1(OC(C)=O)CO[C@@H]1C[C@@H]2O [taxol] |  |  |  |  |  |  |  |  | independently reduced, in part | 
CCCCCN(C)CCC(O)(P(=O)(O)O)P(=O)(O)O [ibandronate, 1-hydroxy-3-(methylpentylamino)-propylidene-bisphosphonic acid] |  |  |  |  |  |  |  |  |  | osteolytic lesions in bone (radiographs) [10]: markedly decreased
NCCCC(O)(P(=O)(O)O)P(=O)(O)O [alendronate, 4-amino-1-hydroxybutane-1,1-diphosphonic acid] |  |  |  |  |  |  |  |  | independently reduced, in part | establishment of bone metastases [11]: partially blocked
O=P(O)(O)C(O)(Cn1ccnc1)P(=O)(O)O [zoledronate, (1-hydroxy-2-(1H-imidazole-1-yl)ethylidene) bisphosphonate] | 155 | 1e-05 | 193 | 44%±14% | ~95 | 24 | 180%±12% and 205%±7% | 10^−9 mol/L |  | concentration at which normal proliferation rate is recovered ([1]; OPM-2): 5e-05 mol/L; concentration at which normal proliferation rate is recovered ([3]; LP-1): 5e-05 mol/L; MMP-2 upregulation (72 kDa gelatinase activity, densitometry) ([7]; 10^−9 mol/L): 159%±16%; percentage of cells in S phase [12]: 60%; inhibition at 1 µM ([8]; Homo sapiens, BMSC, 10^−6 mol/L, p=0.05, read-out: maximum inhibition of IL-6 production by BMSC): 60%
